We go through two molecules from article PMC12428754, “Testing Strategies for Metabolite-Mediated Neurotoxicity” (International Journal of Molecular Sciences, 2025).

Data set [1] deals with hiPSC-derived immature human dorsal root ganglia neuron-like cells. Description: PeriTox (UKN5a) neurite outgrowth assay. It is filed as cell-based. The protocol: PeriTox assay was performed as previously described. In brief, cryopreserved hiPSC-derived immature human dorsal root ganglia neuron-like cells were thawed and plated at a density of 100,000 cells/cm^2 into matrigel-coated 96-well plates. The cells were cultured in 75 µL PeriTox differentiation medium (PDM) consisting of 25% KSR-S and 75% N2-S media supplemented with 1.5 µM CHIR99021, 1.5 µM SU5402, and 5 µM DAPT (KSR-S: knockout DMEM with 15% serum replacement, 1x Glutamax, 1x nonessential amino acids, and […] beta-mercaptoethanol; N2-S: DMEM/F12, with 2 mM Glutamax, 0.1 mg/mL apotransferrin, 1.55 mg/mL glucose, 25 µg/mL insulin, […] putrescine, 30 nM selenium, and 20 nM progesterone). After one hour, 25 µL PDM with 4x concentrated serial dilutions of the test compounds was added to the cells.
The image acquisition and analysis were conducted according to established protocols. The cells were stained with Hoechst H-33342 (1 µg/mL) to visualise nuclei and calcein-AM (1 µM) to label viable cell structures. Fluorescent images were acquired using an automated imaging system. An image analysis algorithm detected nuclei to define somatic regions, which were then excluded from the total calcein-positive area. The remaining signal was quantified as the neurite area.
In the first step, matched technical replicates were averaged. […] For visualisation, GraphPad Prism 9 was used. […]
Supplementary Figure S1: Comparison of data from the MitoMet test and the PeriTox test. A) Exposure scheme for the PeriTox test (UKN5a):
For testing, cryopreserved hiPSC-derived immature human dorsal root ganglia neuron-like cells were thawed and plated into 96-well plates. Cells were treated with toxicants at one h after plating. Neurite outgrowth and viability were determined at 24 h later, using automated high content imaging. B) Benchmark concentrations (BMC25) were calculated as a measure for “onset of toxicity” for the MitoMet (UKN4b; as described in Figure 1) and UKN5a assay. If no BMC could be determined, the highest tested concentration was used as surrogate endpoint. The arrows indicate the sensitivity shifts of parent vs metabolite in the respective assay. […]

For data set [2] the following is noted: for metabolite formation over time: samples every 30 min for 2 h. The protocol: Parent compounds were incubated at final concentrations of either (a) 5 µM or (b) 50 µM (for chlorfenapyr) with pooled human liver microsomes (HLM; mixed gender, n = 150; BioIVT; West Sussex, UK) at corresponding protein concentrations of (a) 0.52 mg/mL or (b) 5.2 mg/mL. Incubations were performed in the absence or presence of NADPH at final concentrations of (a) 1 mM or (b) 10 mM, respectively, using a thermostated orbital shaker at 37 °C and 150 rpm. Reactions were terminated at designated time points by the addition of acetonitrile/methanol (3:1, v/v). Samples were then centrifuged at 10,000× g for 10 min, and the resulting supernatants were analysed by LC-MS/MS.
All analytes were measured using an Acquity UPLC H-Class system coupled to a Xevo TQ-S micro mass spectrometer (Waters). Chromatographic separation was performed on an Acquity UPLC BEH C18 column (2.1 × 50 mm, 1.7 µm) with a mobile phase consisting of 0.1% formic acid in water (A) and acetonitrile (B). Unless otherwise stated, the column was maintained at 30 °C and operated at a flow rate of 0.4 mL/min. The standard gradient was 95% A from 0 to 1.0 min, decreased to 2% A by 1.5 min, held until 4.0 min, returned to 95% A at 4.3 min, and held until 5.0 min. […] The mass spectrometer operated in electrospray ionisation (ESI) mode. Compound-specific MRM transitions, cone voltages, and collision energies for all analytes are listed in Supplementary Table S2.
Int. J. Mol. Sci. 2025, 26, x FOR PEER REVIEW 3 of 5
Supplementary Figure S3: Quantification of specific metabolite formation from selected parent/metabolite pairs in a human liver microsomes (HLM) assay. Parent compounds (PAR) were incubated at a concentration of 5 µM (50 µM for chlorfenapyr) with HLM in the absence (dashed line, open symbols) or presence of NADPH (solid lines, closed symbols). Samples were taken every 30 min for 2 h (+NADPH) or at 2 h only (- NADPH). The remaining fraction of the PAR was quantified for each sample. Additionally, one key metabolite (MET) was measured. Its amount is expressed as fraction of PAR converted to MET, assuming an equimolar PAR to MET reaction, 100 % indicates a complete conversion. The middle-dashed line indicates a metabolite formation of at least 10% of PAR. Data are means of two measurements n.d. = not detected.
(1 picture or pasted object on this page, not shown here)

Setting [3] is: human liver microsomes, listed under the metabolite.

Structures are written as SMILES.

With `O=C(c1ccccc1)c1ccc(O)cc1` [4-Hydroxybenzophenone], in data set [1] (result in words), the “effect on peripheral neurite outgrowth” value is on record as “neither benzophenone nor its hydroxy metabolite showed any significant effect”. Further, the “extent of metabolite formation” value in data set [2] (human liver microsomes, result in words) is “only trace amounts”. Besides, in data set [2] (setting [3]), the “metabolite formation over time” value was “time-dependent increase in metabolite formation”.

As for `N#Cc1c(-c2ccc(Cl)cc2)[nH]c(C(F)(F)F)c1Br` [Tralopyril], the “parent/metabolite potency ratio (BMC25)” value in data set [1] (listed under the metabolite) turned out to be 15. The “cofactor (NADPH) dependence of metabolite formation” value in data set [2] (human liver microsomes ± NADPH, result in words) is on record as “clearly dependent on NADPH”. The “metabolite formation over time” value in data set [2] (setting [3]) was “time-dependent increase in metabolite formation”. In data set [2] (human liver microsomes, up to 2 h, listed under the metabolite), the “conversion rate of parent to metabolite” value is given as “approximately 10%”.
